Test results: patent publication US6448274B2, “Fluoroalkoxy-substituted benzamide dichloropyridinyl N-oxide PDE4 inhibitor” (Merck Frosst Canada & Co., priority 2000, dated 2002)
Where two headings read alike, the source gives them in different places.

Experiments:
[1] = system: duration of anesthesia induced by the combination of xylazine and ketamine in rats; experiment: Effect on duration of anesthesia induced by xylazine and ketamine; type: in vivo, Male Sprague-Dawley rats; conditions: 3 mg/kg i.p.; for Duration of anesthesia (min), Compound treated group: n = 5, mean ± S.E.M., return of righting reflex as endpoint; for Effect on duration of anaesthesia (in words): n=5
Method: (§1) Compound I of the present invention was compared to Compound II by testing the for effects on the duration of anesthesia induced by the combination of xylazine and ketamine in rats. Male Sprague-Dawley rats were anaesthetised with a combination of xylazine (10 mg/kg) and ketamine (10 mg/kg) administered in a single intramuscular injection in the back hindlimb. Fifteen minutes later, the drug to be tested or its vehicle was injected intraperitoneally (dosing volume=1 ml/kg) and the animals were placed in dorsal recumbence. The compounds were dissolved immediately before use in polyethylene glycol (M.W. 200). The return of the righting reflex (i.e. when the animal no longer remained on its back and turned itself spontaneously to the prone position) was used as an endpoint to determine the duration of anaesthesia.
(§2) At the end of the experiment, at 60 minutes post-dosing, plasma and brain samples were taken for drug concentration determination.

[2] = Plasma and brain concentrations at 60 minutes post-dosing; type: in vivo; conditions: male, Sprague-Dawley, rat, ip, rats, 3 mg/kg i.p.; for Kp at 60 min: brain and plasma, n=5
Method: as §1, §2
However, the distribution to the brain was very different for each compound.

[3] = brain, n=5, read-out: Brain concentration
[4] = plasma, n=5, read-out: Plasma concentration

| Structure (SMILES) | Inhibition % (of duration of anesthesia vs vehicle treated group) [1] [%] | Duration of anesthesia (min), Compound treated group [1] [min] | Effect on duration of anaesthesia (in words) [1] | Kp at 60 min [2] | concentration at 60 min [2, 3] [nM] | concentration at 60 min [2, 4] [nM] |
| --- | --- | --- | --- | --- | --- | --- |
| O=C(Nc1c(Cl)c[n+]([O-])cc1Cl)c1ccc(OC(F)F)c(OCC2CC2)c1 [Compound Formula I, N-(3,5-Dichloro-1-oxido-pyridin-4-yl)-4-difluoromethoxy-3-cyclopropylmethoxybenzamide] | 15.6 | 37.40 ± 7.83 | did not significantly modify the duration of anaesthesia | 0.0938 | 410 ± 150 | 4370 ± 1650 |
| O=C(Nc1c(Cl)cncc1Cl)c1ccc(OC(F)F)c(OCC2CC2)c1 [Compound Formula II, N-(3,5-Dichloropyridin-4-yl)-4-difluoromethoxy-3-cyclopropylmethoxybenzamide] | 54.7 | 19.20 ± 4.68 | significant reduction in the duration of the anaesthesia | 0.75 | 150 ± 50 | 200 ± 80 |
